In patent US9174980B2, “Heterocyclic compounds as inhibitors of leukotriene production” (Boehringer Ingelheim International GmbH, priority 2012, dated 2015):

Experiments:
[1] = target: T1, recombinant human FLAP protein (Homo sapiens, UniProt P20292); assay: FLAP binding assay (Scintillation Proximity Assay, displacement of [125I]L-691,831); conditions: read-out: Human FLAP SPA Binding (IC50 nM)
T1 construct: made in house; host or cells: Sf9 insect cells (membrane fraction, 100,000 x g pellet)
T1 sequence (P20292 1-161): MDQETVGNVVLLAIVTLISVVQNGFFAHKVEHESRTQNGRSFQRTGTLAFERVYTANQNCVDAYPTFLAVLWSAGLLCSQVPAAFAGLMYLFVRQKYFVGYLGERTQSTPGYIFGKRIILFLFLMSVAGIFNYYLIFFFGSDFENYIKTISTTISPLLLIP
Method in brief: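 Membranes from sf9 cells expressing recombinant human FLAP (5 μg/well) on WGA SPA beads were incubated with compound and 0.08 nM [125I]L-691,831 in Tris pH 7.5 binding buffer, shaken 2 h. Displacement read by scintillation proximity; non-specific binding set with 10 μM unlabelled L-691,831.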

[2] = tested on: synthesis of LTB4 in human whole blood; assay: Human whole blood assay (calcimycin-stimulated LTB4 synthesis); assay type: cell-based; conditions: Homo sapiens; read-out: Human Whole Blood LTB4 Assay for FLAP (IC50 nM)
Method in brief: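 LTB4 in plasma was quantified by HTRF immunoassay. Before that, compound-treated heparinized whole blood (15 min, 37 °C) received 20 μM final calcimycin for a further 30 min at 37 °C, followed by centrifugation at 1500×g.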

Row | SMILES | IC50 [1] | IC50 [2]
1 | CC(C)C(C)(c1ccc(-c2cnc(N)nc2)cc1)c1c[nH]c2c(C(=O)O)cccc12 (stereo not drawn) [Example 84, 3-[1-[4-(2-aminopyrimidin-5-yl)phenyl]-1,2-dimethyl-propyl]-1H-indole-7-carboxylic acid] | 0.7 nM | 3000 nM
2 | CC(C)C(C)(c1ccc(-c2cnc(N)nc2)cc1)c1c[nH]c2cc(S(C)(=O)=O)ccc12 (stereo not drawn) [Example 85, 5-(4-{3-methyl-2-[6-(methylsulfonyl)-1H-indol-3-yl]butan-2-yl}phenyl)pyrimidin-2-amine] | 0.97 nM | 300 nM
3 | Cc1[nH]c2ccccc2c1C(C)(c1ccc(-c2cnc(N)nc2)cc1)C(C)C (stereo not drawn) [Example 86, 5-{4-[3-methyl-2-(2-methyl-1H-indol-3-yl)butan-2-yl]phenyl}pyrimidin-2-amine] | 1.4 nM | 230 nM
4 | Nc1ncc(-c2ccc(C3(c4c[nH]c5c(F)cccc45)CCC3)cc2)cn1 [Example 87, 5-{4-[1-(7-fluoro-1H-indol-3-yl)cyclobutyl]phenyl}pyrimidin-2-amine] | 1.6 nM | 400 nM
5 | Nc1ncc(-c2ccc(C3(c4c[nH]c5ccccc45)CCCC3)cc2)cn1 [Example 88, 5-{4-[1-(1H-indol-3-yl)cyclopentyl]phenyl}pyrimidin-2-amine] | 1.7 nM | 430 nM
6 | Nc1ncc(-c2ccc(C3(c4c[nH]c5ccccc45)CCCCC3)cc2)cn1 [Example 89, 5-{4-[1-(1H-indol-3-yl)cyclohexyl]phenyl}pyrimidin-2-amine] | 12 nM | 2200 nM
7 | CS(=O)(=O)c1ccc2c(C3(c4ccc(-c5cnc(N)nc5)cc4)CCC3)c[nH]c2c1 [Example 90, 5-(4-{1-[6-(methylsulfonyl)-1H-indol-3-yl]cyclobutyl}phenyl)pyrimidin-2-amine] | 0.75 nM | 170 nM
8 | CCC(C)(c1ccc(-c2cnc(N)nc2)cc1)c1c[nH]c2ccccc12 (stereo not drawn) [Example 91, 5-{4-[2-(1H-indol-3-yl)butan-2-yl]phenyl}pyrimidin-2-amine] | 2.7 nM | 230 nM
9 | Nc1ncc(-c2ccc(C3(c4nc(-c5cccnc5)no4)CCC3)cc2)cn1 [Example 92, 5-(4-{1-[3-(pyridin-3-yl)-1,2,4-oxadiazol-5-yl]cyclobutyl}phenyl)pyrimidin-2-amine] | 9.1 nM | 840 nM
10 | Nc1ncc(-c2ccc(C3(c4nnc(-c5ccccc5)o4)CCC3)cc2)cn1 [Example 93, 5-{4-[1-(5-phenyl-1,3,4-oxadiazol-2-yl)cyclobutyl]phenyl}pyrimidin-2-amine] | 29 nM | > 5000 nM
11 | Nc1ncc(-c2ccc(C3(c4nnc(-c5cccnc5)o4)CCC3)cc2)cn1 [Example 94, 5-(4-{1-[5-(pyridin-3-yl)-1,3,4-oxadiazol-2-yl]cyclobutyl}phenyl)pyrimidin-2-amine] | 120 nM | 2800 nM
12 | Cn1cc(C2(c3ccc(-c4cnc(N)nc4)cc3)CCC2)c2cccnc21 [Example 95, 5-{4-[1-(1-methyl-1H-pyrrolo[2,3-b]pyridin-3-yl)cyclobutyl]phenyl}pyrimidin-2-amine] | 5 nM | 960 nM
13 | CC(C)C(C)(c1ccc(-c2cnc(N)nc2)cc1)c1n[nH]c(-c2ccccc2)n1 (stereo not drawn) [Example 96, 5-{4-[3-methyl-2-(5-phenyl-1H-1,2,4-triazol-3-yl)butan-2-yl]phenyl}pyrimidin-2-amine] | 1.4 nM | 240 nM
14 | CC(C)C(C)(c1ccc(-c2cnc(N)nc2)cc1)c1nnc(-c2ccccc2)o1 (stereo not drawn) [Example 97, 5-{4-[3-methyl-2-(5-phenyl-1,3,4-oxadiazol-2-yl)butan-2-yl]phenyl}pyrimidin-2-amine] | 14 nM | 4100 nM
15 | CC(C)C(C)(c1ccc(-c2cnc(N)nc2)cc1)c1c[nH]c2c(C(=O)N3CCC(O)C3)cccc12 (stereo not drawn) [Example 98, (3-{2-[4-(2-aminopyrimidin-5-yl)phenyl]-3-methylbutan-2-yl}-1H-indol-7-yl)(3-hydroxypyrrolidin-1-yl)methanone] | 0.6 nM | 360 nM
